Legend:
FGFR2 (N549H) = target: T1, FGFR2 (N549H) (Homo sapiens, UniProt P21802, N549H); assay: FGFR2 kinase activity assay (fluorescent ELISA); format: biochemical
T1 construct: purchased Millipore 14-742
Method: The enzymatic assays described herein are conducted according to the following procedures from commercially available reagents. In one, non limiting, example, a fluorescent ELISA assay is used to identify and characterize inhibitors of FGFR2 kinase as described herein. This heterogeneous assay utilizes a biotinylated peptide with a tyrosine motif as a substrate and an anti-phospho-tyrosine antibody to measure phosphorylation of the substrate. The reaction is initiated by adding the test compound, 37 μM Pyk2 substrate (Midwest Biotech, Cat. # MBT2383), 12.5 μM ATP (Roche, Cat. #11 140 965 001) and 0.5 μM FGFR2 enzyme (Millipore, Cat. #14-742) sequentially to a non-binding polypropylene V-well plate. All reagents are in an assay buffer consisting of: 50 mM Tris-HCL, 0.02 mg/ml BSA, 10 mM MgCl2, 0.1 mM Na3VO4, 1 mM EGTA, 75 μM ATP, 0.01% NP-40, 2 mM DTT and 10% glycerol. The reaction is incubated for 60 minutes. As the reaction proceeds, FGFR2 phosphorylates tyrosines in the peptide. The reaction mixture is then moved to a blocked streptavidin-coated Nunc Maxisorb plate (coated with 100 ng streptavidin from Pierce (Cat. #15-124) per well), allowing for the capture of the biotinylated peptide. Peptides are captured for 30 minutes at room temperature, the phosphorylation of peptides continues during this phase. The reaction is stopped by washing the streptavidin-coated plate 6 times with TBST. Phosphorylated peptide is detected by adding anti-phospho-tyrosine antibody (Cell Signaling, Cat. #9411, diluted 1:3000) to the streptavidin-coated plate. Unbound anti-phospho-tyrosine antibody is removed by washing the streptavidin-coated plate 6 times with TBST. Secondary detection is performed using alkaline phosphatase tagged goat anti-mouse antibody (Pierce, Cat. #31320, diluted 1:4000) for one hour. Unbound secondary antibody is removed by washing the streptavidin-coated plate 6 times with TBST. The fluorescent readout is initiated by adding to the streptavidin-coated plate Promega Attophos substrate (Promega, Cat. # S1000, dilution=6 mg/10 ml), which, when dephosphorylated by alkaline phosphatase, emits a fluorescent signal of 595 nm in wavelength when excited by a signal of 400 nm in wavelength. The reading of the 595 nm signal is done on the Perkin Elmer Envision system. Compounds which prevent FGFR2 from phosphorylating the peptide result in a lower fluorescent signal. The 595 nm fluorescent signal is directly proportional to the activity of FGFR2. Thus, the inhibition of FGFR2 by compounds is monitored by the decrease in the 595 nm fluorescent signal.

MDA-MB-231 = assay: MTS assay, MDA-MB-231; format: cell-based; conditions: Homo sapiens, MDA-MB-231, 72 h
Method: (§1) Cells were maintained at 37° C., 5% CO2 in RPMI media supplemented with 1% fetal bovine serum, penicillin/streptomycin and fungizone (Invitrogen). Cells were seeded into 96-well tissue culture plates at 3000 per well and cultured at 37° C. for 18 h. Test compounds were dissolved and diluted to 300× in DMSO then diluted 1:40 in DMEM. Cells were incubated with test compounds for 72 hours followed by incubation with tetrazolium compound (3-(4,5-dimethylthiazol-2-yl)-5-(3-carboxymethoxyphenyl)-2-(4-sulfophenyl)-2H-tetrazolium, inner salt; MTS) and the electron coupling reagent, phenazine methosulfate (PMS) for 4 hours. […] The ability of compounds to inhibit cell growth in this assay is correlated with the reduction of dehydrogenase enzyme activity found in metabolically active cells. The measurement of the absorbance of the formazan was assessed using an ENVISION™ (Perkin Elmer) microplate reader at 492 nm. The calculated IC50 value is the concentration of the test compound that causes a 50% decrease in the absorbance.

DLD-1 = assay: MTS assay, DLD-1; format: cell-based; conditions: Homo sapiens, DLD-1, 72 h
Method: as §1

T1 sequence (P21802 22-821 N549H): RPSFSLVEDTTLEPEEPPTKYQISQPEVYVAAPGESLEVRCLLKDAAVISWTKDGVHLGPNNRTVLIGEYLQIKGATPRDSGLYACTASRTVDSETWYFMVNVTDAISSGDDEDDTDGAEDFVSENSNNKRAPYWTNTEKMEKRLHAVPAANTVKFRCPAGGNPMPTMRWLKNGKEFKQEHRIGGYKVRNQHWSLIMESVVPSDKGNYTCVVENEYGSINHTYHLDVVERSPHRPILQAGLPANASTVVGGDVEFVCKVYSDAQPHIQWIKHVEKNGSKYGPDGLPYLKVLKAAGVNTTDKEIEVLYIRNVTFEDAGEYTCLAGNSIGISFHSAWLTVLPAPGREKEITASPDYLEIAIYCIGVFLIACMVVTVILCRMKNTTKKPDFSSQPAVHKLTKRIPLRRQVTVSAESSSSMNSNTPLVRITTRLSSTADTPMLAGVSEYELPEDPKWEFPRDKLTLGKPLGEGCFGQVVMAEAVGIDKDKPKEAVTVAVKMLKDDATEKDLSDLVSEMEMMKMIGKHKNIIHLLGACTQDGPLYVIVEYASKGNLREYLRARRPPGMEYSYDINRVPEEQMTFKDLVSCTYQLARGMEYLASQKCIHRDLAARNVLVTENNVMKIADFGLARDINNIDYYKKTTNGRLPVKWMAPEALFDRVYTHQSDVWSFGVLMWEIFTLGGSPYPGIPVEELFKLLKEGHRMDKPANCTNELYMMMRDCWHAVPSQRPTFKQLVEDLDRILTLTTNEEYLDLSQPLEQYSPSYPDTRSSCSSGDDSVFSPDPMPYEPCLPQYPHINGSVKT

Structure (SMILES)	inhibition at 30 µM (FGFR2 (N549H))	inhibition at 10 µM (MDA-MB-231)	inhibition at 10 µM (DLD-1)
Cc1nnc(-c2cn3c4c(cccc24)CCC3)o1 [Compound 56, 1-(5-methyl-1,3,4-oxadiazol-2-yl)-5,6-dihydro-4H-pyrrolo[3,2,1-ij]quinoline]	–	77%	94%
CC(C)(C)C(=O)N1CCC(CNc2nccc(-c3cn4c5c(cccc35)CCC4)n2)CC1 [Compound 36, 1-(4-((4-(5,6-dihydro-4H-pyrrolo[3,2,1-ij]quinolin-1-yl)pyrimidin-2-ylamino)methyl)piperidin-1-yl)-2,2-dimethylpropan-1-one]	–	–	85%
c1cc2c3c(c1)c(-c1ccnc(N[C@H]4CCCNC4)n1)cn3CCC2 [Compound 37, (S)-4-(5,6-dihydro-4H-pyrrolo[3,2,1-ij]quinolin-1-yl)-N-(piperidin-3-yl)pyrimidin-2-amine]	102%	83%	83%
c1cc2c3c(c1)c(-c1nnnn1CC1CCNCC1)cn3CCC2 [Compound 81, 1-[1-(piperidin-4-ylmethyl)-1H-tetrazol-5-yl]-5,6-dihydro-4H-pyrrolo[3,2,1-ij]quinoline]	91%	–	–
O=C(Nc1ccc(-c2ccccc2)cc1)N1CCC(CNc2nccc(-c3cn4c5c(cccc35)CCC4)n2)CC1 [Compound 39, N-(biphenyl-4-yl)-4-((4-(5,6-dihydro-4H-pyrrolo[3,2,1-ij]quinolin-1-yl)pyrimidin-2-ylamino)methyl)piperidine-1-carboxamide]	71%	31%	52%
O=C(Nc1ccc(Cl)cc1)N1CCC(CNc2nccc(-c3cn4c5c(cccc35)CCC4)n2)CC1 [Compound 44, N-(4-chlorophenyl)-4-((4-(5,6-dihydro-4H-pyrrolo[3,2,1-ij]quinolin-1-yl)pyrimidin-2-ylamino)methyl)piperidine-1-carboxamide]	65%	84%	97%
Clc1ccc(-c2nnc(-c3cn4c5c(cccc35)CCC4)o2)cc1 [Compound 63, 1-[5-(4-chlorophenyl)-1,3,4-oxadiazol-2-yl]-5,6-dihydro-4H-pyrrolo[3,2,1-ij]quinoline]	–	100%	98%
COc1ccc(NC(=O)N2CCC(CNc3nccc(-c4cn5c6c(cccc46)CCC5)n3)CC2)cc1 [Compound 38, 4-((4-(5,6-dihydro-4H-pyrrolo[3,2,1-ij]quinolin-1-yl)pyrimidin-2-ylamino)methyl)-N-(4-methoxyphenyl)piperidine-1-carboxamide]	79%	98%	97%
O=C(Nc1ccccc1OC(F)F)N1CCC(CNc2nccc(-c3cn4c5c(cccc35)CCC4)n2)CC1 [Compound 50, N-(2-(difluoromethoxy)phenyl)-4-((4-(5,6-dihydro-4H-pyrrolo[3,2,1-ij]quinolin-1-yl)pyrimidin-2-ylamino)methyl)piperidine-1-carboxamide]	55%	53%	55%
COc1ccccc1C(=O)N1CCC(CNc2nccc(-c3cn4c5c(cccc35)CCC4)n2)CC1 [Compound 54, (4-((4-(5,6-dihydro-4H-pyrrolo[3,2,1-ij]quinolin-1-yl)pyrimidin-2-ylamino)methyl)piperidin-1-yl)(2-methoxyphenyl)methanone]	46%	37%	95%
c1cc2c3c(c1)c(-c1nnnn1C1CCCNC1)cn3CCC2 (stereo not shown) [Compound 83, 1-(1-piperidin-3-yl-1H-tetrazol-5-yl)-5,6-dihydro-4H-pyrrolo[3,2,1-ij]quinoline]	84%	–	–
NC1CCC(n2nnnc2-c2cn3c4c(cccc24)CCC3)CC1 (stereo not shown) [Compound 82, 4-[5-(5,6-dihydro-4H-pyrrolo[3,2,1-ij]quinolin-1-yl)-1H-tetrazol-1-yl]cyclohexanamine]	91%	–	–
O=S(=O)(c1ccc(Cl)cc1)N1CCC(CNc2nccc(-c3cn4c5c(cccc35)CCC4)n2)CC1 [Compound 35, N-((1-(4-chlorophenylsulfonyl)piperidin-4-yl)methyl)-4-(5,6-dihydro-4H-pyrrolo[3,2,1-ij]quinolin-1-yl)pyrimidin-2-amine]	–	98%	97%

More lines, main results first:

inhibition at 30 µM (FGFR2 (N549H))	Structure (SMILES)	inhibition at 10 µM (MDA-MB-231)	inhibition at 10 µM (DLD-1)
64%	Cc1ccc(NC(=O)N2CCC(CNc3nccc(-c4cn5c6c(cccc46)CCC5)n3)CC2)cc1 [Compound 45, 4-((4-(5,6-dihydro-4H-pyrrolo[3,2,1-ij]quinolin-1-yl)pyrimidin-2-ylamino)methyl)-N-p-tolylpiperidine-1-carboxamide]	72%	94%
61%	CC(C)NC(=O)N1CCC(CNc2nccc(-c3cn4c5c(cccc35)CCC4)n2)CC1 [Compound 46, 4-((4-(5,6-dihydro-4H pyrrolo[3,2,1-ij]quinolin-1-yl)pyrimidin-2-ylamino)methyl)-N-isopropylpiperidine-1-carboxamide]	–	52%
66%	O=C(Nc1ccccc1)N1CCC(CNc2nccc(-c3cn4c5c(cccc35)CCC4)n2)CC1 [Compound 42, 4-((4-(5,6-dihydro-4H-pyrrolo[3,2,1-ij]quinolin-1-yl)pyrimidin-2-ylamino)methyl)-N-phenylpiperidine-1-carboxamide]	79%	97%
60%	CCOC(=O)CNC(=O)N1CCC(CNc2nccc(-c3cn4c5c(cccc35)CCC4)n2)CC1 [Compound 34, ethyl 2-(4-((4-(5,6-dihydro-4H-pyrrolo[3,2,1-ij]quinolin-1-yl)pyrimidin-2-ylamino)methyl)piperidine-1-carboxamido)acetate]	–	65%
60%	O=C(NCc1ccccc1)N1CCC(CNc2nccc(-c3cn4c5c(cccc35)CCC4)n2)CC1 [Compound 47, N-benzyl-4-((4-(5,6-dihydro-4H-pyrrolo[3,2,1-ij]quinolin-1-yl)pyrimidin-2-ylamino)methyl)piperidine-1-carboxamide]	97%	98%
68%	CCOC(=O)NC(=O)N1CCC(CNc2nccc(-c3cn4c5c(cccc35)CCC4)n2)CC1 [Compound 41, ethyl 4-((4-(5,6-dihydro-4H-pyrrolo[3,2,1-ij]quinolin-1-yl)pyrimidin-2-ylamino)methyl)piperidine-1-carbonylcarbamate]	33%	–
51%	CC(C)(C)NC(=O)N1CCC(CNc2nccc(-c3cn4c5c(cccc35)CCC4)n2)CC1 [Compound 52, N-tert-butyl-4-((4-(5,6-dihydro-4H-pyrrolo[3,2,1-ij]quinolin-1-yl)pyrimidin-2-ylamino)methyl)piperidine-1-carboxamide]	–	55%
65%	CCCNC(=O)N1CCC(CNc2nccc(-c3cn4c5c(cccc35)CCC4)n2)CC1 [Compound 43, 4-((4-(5,6-dihydro-4H-pyrrolo[3,2,1-ij]quinolin-1-yl)pyrimidin-2-ylamino)methyl)-N-propylpiperidine-1-carboxamide]	43%	86%
59%	CS(=O)(=O)N1CCC(CNc2nccc(-c3cn4c5c(cccc35)CCC4)n2)CC1 [Compound 48, 4-(5,6-dihydro-4H-pyrrolo[3,2,1-ij]quinolin-1-yl)-N-((1-(methylsulfonyl)piperidin-4-yl)methyl)pyrimidin-2-amine]	–	–

From patent US8563567B2, “Substituted heterocyclic compounds” (ArQule, Inc., priority 2009, dated 2013)
